Assay results: patent publication US8101760B2, “Glucocorticoid receptor modulator and methods of use” (Eli Lilly and Company, priority 2007, dated 2012)
pEC50, pKi: −log10 of the molar value.

Key:
[1] = In vivo studies of genotoxic potential
[2] = biological target: T1, human PR (progesterone receptor) (Homo sapiens, UniProt P06401); test: Nuclear hormone receptor binding assay, PR
T1 construct: expressed in transfected cells; host or cells: HEK293 (lysate, '293-PR lysate')
T1 sequence (P06401 1-933): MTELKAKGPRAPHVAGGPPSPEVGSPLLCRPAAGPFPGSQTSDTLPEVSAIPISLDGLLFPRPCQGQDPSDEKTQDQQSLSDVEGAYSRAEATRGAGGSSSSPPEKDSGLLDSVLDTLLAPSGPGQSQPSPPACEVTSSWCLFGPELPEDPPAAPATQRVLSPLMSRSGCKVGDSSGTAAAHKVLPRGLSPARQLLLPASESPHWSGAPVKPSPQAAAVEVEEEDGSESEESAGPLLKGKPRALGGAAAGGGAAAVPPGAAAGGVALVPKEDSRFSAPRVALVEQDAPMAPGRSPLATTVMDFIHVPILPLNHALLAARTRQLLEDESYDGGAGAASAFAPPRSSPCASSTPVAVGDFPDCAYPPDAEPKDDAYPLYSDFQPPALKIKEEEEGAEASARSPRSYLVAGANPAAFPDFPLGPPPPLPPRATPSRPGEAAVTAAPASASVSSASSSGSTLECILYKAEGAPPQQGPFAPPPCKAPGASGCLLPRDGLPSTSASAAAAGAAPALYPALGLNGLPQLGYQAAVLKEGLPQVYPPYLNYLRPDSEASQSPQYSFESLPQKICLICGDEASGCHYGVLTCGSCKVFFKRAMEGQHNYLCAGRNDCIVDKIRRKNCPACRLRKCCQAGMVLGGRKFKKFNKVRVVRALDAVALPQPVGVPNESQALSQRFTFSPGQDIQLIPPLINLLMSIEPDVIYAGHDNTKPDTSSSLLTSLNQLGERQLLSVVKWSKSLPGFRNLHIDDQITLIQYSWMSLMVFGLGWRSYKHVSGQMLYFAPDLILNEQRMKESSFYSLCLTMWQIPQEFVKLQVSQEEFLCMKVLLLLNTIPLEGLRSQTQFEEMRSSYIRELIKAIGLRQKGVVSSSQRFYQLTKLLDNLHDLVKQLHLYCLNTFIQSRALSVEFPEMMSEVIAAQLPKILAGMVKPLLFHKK
Protocol: Cell lysates from human embryonic kidney HEK293 cells overexpressing human GR (glucocorticoid receptor), AR (androgen receptor), MR (mineralocorticoid receptor), or PR (progesterone receptor) are used for receptor-ligand competition binding assays to determine Ki values.
Briefly, steroid receptor competition binding assays are run in a buffer containing 20 mM Hepes buffer (pH=7.6), 0.2 mM EDTA, 75 mM NaCl, 1.5 mM MgCl2, 20% glycerol, 20 mM sodium molybdate, 0.2 mM DTT (dithiothreitol), 20 μg/mL aprotinin and 20 μg/mL leupeptin. Typically, steroid receptor binding assays include radio-labeled ligands, such as 0.3 nM [^3H]-dexamethasone for GR binding, 0.36 nM [^3H]-methyltrienolone for AR binding, 0.25 nM [^3H]-aldosterone for MR binding, and 0.29 nM [^3H]-methyltrienolone for PR binding, and either 20 μg 293-GR lysate, 22 μg 293-AR lysate, 20 μg 293-MR lysate or 40 μg 293-PR lysate per well. Assays are typically run in 96-well format. Competing test compounds are added at various concentrations ranging from about 0.01 nM to 10 μM. Non-specific binding is determined in the presence of 500 nM dexamethasone for GR binding, 500 nM aldosterone for MR binding, or 500 nM methyltrienolone for AR and PR binding. […] After an incubation of 2 hours, plates are read in a Wallac Microbeta counter. […]

[3] = tested on: IL-1β-stimulated IL-6 production in human skin fibroblast CCD-39SK cells; test: GR-mediated transrepression: IL-1β-stimulated IL-6 production in CCD-39SK cells; type: cell-based; details: mean of 22 determinations, read-out: EC50, inhibition of IL-6 expression
Protocol: Glucocorticoid Receptor-Mediated Transrepression Assays: 1. IL-1β-Stimulated IL-6 Production in Human Skin Fibroblast CCD-39SK Cells:
Briefly, human skin fibroblast CCD-39SK cells (20,000 cells/well), obtained from the American Type Culture Collection (ATCC), Manassas, Va. U.S.A. (ATCC Catalog #CRL-1501) are seeded in 96-well plates in SF-GM (MEM) medium (ATCC Catalog #30-20030), supplemented with 10% fetal bovine serum (FBS), 100 U/mL penicillin, 100 μg/mL streptomycin and 2 mmol/L L-glutamine. Cells are maintained in a humidified chamber with 5% CO2 at 37° C. Test compounds are added to the wells in various concentrations ranging from a final concentration of about 4.65 pM to 4.64 μM. 0.1 μM of dexamethasone is used as a positive control. 1-hour post treatment with test compound, IL-1β is added at final concentration of 1 ng/mL and the reaction mixture is incubated overnight. IL-6 concentrations are measured with an ELISA Kit (R&D Systems, Inc., Minneapolis, Minn., U.S.A.) using standard techniques. Briefly, take 10 μL of supernatant from each well and add 90 μL of assay buffer. IL-6 concentrations are quantified by reading absorbance at 450 nm. A standard curve of absorbance versus IL-6 concentration is constructed and used to determine the concentration of IL-6 in experimental samples.

CC/C(=C1\c2ccc(Cl)cc2OCc2ncccc21)c1cccc(NS(C)(=O)=O)c1 [Compound (I), (E)-N-{3-[1-(8-Chloro-11H-10-oxa-1-aza-dibenzo[a,d]cyclohepten-5-ylidene)-propyl]-phenyl}-methanesulfonamide]
genotoxic potential [1]: non-genotoxic | pKi ([2]; HEK293 cell lysate expressing human PR, [3H]-methyltrienolone, mean of 5 determinations): 7.51 | greater affinity for GR relative to PR ([2]; binding selectivity GR vs PR): ≥ 30 fold | pEC50 [3]: ~8.32
